The nature of series [1]: CHI Log D procedure. The class given is physicochemical. The following applies: for chromatographic logD: pH 7.4, CHI Log D; for CHI Log D: pH 7.4.
In series [2] the target is T1, full-length beta-Catenin (Uniprot ID P35222) (Homo sapiens, UniProt P35222).
T1 construct: 10 nM full-length beta-Catenin (Uniprot ID P35222)
T1 sequence (P35222 1-781): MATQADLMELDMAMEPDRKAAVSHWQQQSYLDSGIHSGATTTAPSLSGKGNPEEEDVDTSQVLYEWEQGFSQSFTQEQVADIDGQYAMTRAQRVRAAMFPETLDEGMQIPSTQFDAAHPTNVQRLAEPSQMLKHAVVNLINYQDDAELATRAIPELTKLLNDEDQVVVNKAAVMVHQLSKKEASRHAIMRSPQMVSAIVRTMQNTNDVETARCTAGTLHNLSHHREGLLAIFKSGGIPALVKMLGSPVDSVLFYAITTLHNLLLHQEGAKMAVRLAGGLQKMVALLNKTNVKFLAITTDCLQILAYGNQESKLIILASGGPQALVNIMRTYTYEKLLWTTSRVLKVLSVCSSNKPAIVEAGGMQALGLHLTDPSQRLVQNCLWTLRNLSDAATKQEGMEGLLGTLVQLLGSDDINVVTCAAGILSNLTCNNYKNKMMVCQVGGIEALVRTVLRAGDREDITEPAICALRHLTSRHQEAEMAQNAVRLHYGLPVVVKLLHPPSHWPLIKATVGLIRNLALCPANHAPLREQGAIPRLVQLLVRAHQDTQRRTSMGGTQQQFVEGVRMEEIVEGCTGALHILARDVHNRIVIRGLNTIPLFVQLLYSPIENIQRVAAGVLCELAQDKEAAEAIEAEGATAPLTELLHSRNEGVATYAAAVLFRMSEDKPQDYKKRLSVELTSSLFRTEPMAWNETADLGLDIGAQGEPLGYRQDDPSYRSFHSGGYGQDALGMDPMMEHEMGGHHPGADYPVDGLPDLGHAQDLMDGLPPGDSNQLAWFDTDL
Kind of series: Fluorescence polarization IC50 (beta-catenin / 5FAM-TCF4 10-53 competition). In kind it is binding. In general terms: Fluorescence polarisation rises when a labelled molecule tumbles more slowly, as on binding a larger partner.

Series [3] is described as follows: Solubility in PBS. In kind it is physicochemical. In short, it runs like this:
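HPLC quantitation of peptide remaining in the PBS supernatant after ultracentrifugation, referenced to a 50 μM solution in DMSO.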

The mark [4] stands for this setting: fluorescence polarization, read-out: beta-Catenin FP IC50.

Molecules are shown by their SMILES. In brackets after ≈: the same amount, converted by molar mass. Read-outs that look alike come from different tables or passages of the source.

Turning to `CC(=O)N1CCC[C@]12CC=CCCCC1(CCCC=CCCCCCC[C@@](C)(C(=O)N[C@@H](Cc3ccccc3)C(=O)N[C@@H](Cc3csc4ccccc34)C(=O)N[C@@H](CCC(N)=O)C(N)=O)NC(=O)[C@H](CCC(N)=O)NC(=O)[C@H](Cc3ccccc3)NC(=O)[C@H](C)NC(=O)[C@H](C)NC(=O)[C@H](CCC(=O)O)NC(=O)[C@H](CC(=O)O)NC1=O)NC(=O)[C@H](C)NC(=O)[C@H](CC(=O)O)NC2=O` (stereo partly drawn) [I-406, Ac-PL3-Asp-Ala-B5-Asp-Glu-Ala-Ala-Phe-Gln-S8-Phe-BztA-Gln-NH2], the chromatographic logD (as a rule, a lipophilicity value derived from retention on a column) in series [1] was found to be 2.04. Besides, the IC50 in series [2] (setting [4]) is 94 nM. The Solubility (as a rule, the dissolved amount per volume that the medium holds) in series [3] (Solubility (uM)) turned out to be 28 µM (≈ 51.6 µg/mL).

As to `CC[C@H](C)[C@@H]1NC(=O)[C@H](CC(=O)O)NC(=O)[C@]2(CC=CCCCC3(CCCC=CCCCCCC[C@@](C)(C(=O)N[C@@H](Cc4ccccc4)C(=O)N[C@@H](Cc4csc5ccccc45)C(N)=O)NC(=O)[C@H](CCC(N)=O)NC(=O)[C@H](Cc4ccccc4)NC(=O)[C@H](C)NC(=O)[C@H](C)NC(=O)[C@H](CCC(=O)O)NC(=O)[C@H](CC(=O)O)NC3=O)NC1=O)CCCN2C(C)=O` (stereo partly drawn) [I-408, Ac-PL3-Asp-Ile-B5-Asp-Glu-Ala-Ala-Phe-Gln-S8-Phe-BztA-NH2], in series [1], the “CHI Log D” value is reported as 2.674. The IC50 in series [2] (setting [4]) and in series [2] (read-out: FP EC50) was 120 nM each time. In addition, the “Solubility” value in series [3] was 50 µM (≈ 87.8 µg/mL).

As for `CC[C@H](C)[C@@H]1NC(=O)[C@H](CC(=O)O)NC(=O)[C@]2(CC=CCCCC3(CCCC=CCCCCCC[C@@](C)(C(=O)N[C@@H](Cc4ccccc4)C(=O)N[C@@H](Cc4csc5ccccc45)C(N)=O)NC(=O)[C@H](CCC(N)=O)NC(=O)[C@H](Cc4ccccc4)NC(=O)[C@H](C)NC(=O)[C@H](C)NC(=O)[C@H](CCC(=O)O)NC(=O)[C@H](CC(=O)O)NC3=O)NC1=O)CCCN2C(C)=O` (stereo partly drawn) [I-409, Ac-PL3-Asp-Ile-B5-Asp-Glu-Ala-Ala-Phe-Gln-S8-Phe-BztA-NH2], the “CHI Log D” value in series [1] is recorded as 2.741. The IC50 in series [2] (setting [4]) and in series [2] (read-out: FP EC50) was 70 nM each time. In addition, in series [3], the “Solubility” value stood at 48 µM (≈ 84.2 µg/mL).

In turn, `CC(=O)N1CCC[C@]12CC=CCCCC1(CCCC=CCCCCCC[C@@](C)(C(=O)N[C@@H](Cc3ccccc3)C(=O)N[C@@H](Cc3csc4ccccc34)C(=O)N[C@@H](CCC(N)=O)C(N)=O)NC(=O)[C@H](CCC(N)=O)NC(=O)[C@H](Cc3ccccc3)NC(=O)[C@H](C)NC(=O)[C@H](C)NC(=O)[C@H](CCC(=O)O)NC(=O)[C@H](CC(=O)O)NC1=O)NC(=O)[C@H](C(C)C)NC(=O)[C@H](CC(=O)O)NC2=O` (stereo partly drawn) [I-410, Ac-PL3-Asp-Val-B5-Asp-Glu-Ala-Ala-Phe-Gln-S8-Phe-BztA-Gln-NH2] had a chromatographic logD in series [1] of 2.26. In series [2] (setting [4]), the IC50 was 50 nM. Also, the “Solubility” value in series [3] came out at 50 µM (≈ 93.5 µg/mL).

`CCCC[C@@H]1NC(=O)[C@H](CC(=O)O)NC(=O)[C@]2(CC=CCCCC3(CCCC=CCCCCCC[C@@](C)(C(=O)N[C@@H](Cc4ccccc4)C(=O)N[C@@H](Cc4csc5ccccc45)C(=O)N[C@@H](CCC(N)=O)C(N)=O)NC(=O)[C@H](C)NC(=O)[C@H](Cc4ccccc4)NC(=O)[C@H](C)NC(=O)[C@H](C)NC(=O)[C@H](CCC(=O)O)NC(=O)[C@H](CC(=O)O)NC3=O)NC1=O)CCCN2C(C)=O` (stereo partly drawn) [I-411, Ac-PL3-Asp-nLeu-B5-Asp-Glu-Ala-Ala-Phe-Ala-S8-Phe-BztA-Gln-NH2] gave a chromatographic logD in series [1] of 2.57. Besides, the IC50 in series [2] (setting [4]) was 189 nM. Besides, the “Solubility” value in series [3] amounted to 50 µM (≈ 91.3 µg/mL).

Consider `CC(=O)N1CCC[C@]12CC=CCCCC1(CCCC=CCCCCCC[C@@](C)(C(=O)N[C@@H](Cc3ccccc3)C(=O)N[C@@H](Cc3csc4ccccc34)C(=O)N[C@@H](CCC(N)=O)C(N)=O)NC(=O)[C@H](CCC(N)=O)NC(=O)[C@H](Cc3ccccc3)NC(=O)[C@H](C)NC(=O)[C@H](C)NC(=O)[C@H](Cc3nn[nH]n3)NC(=O)[C@H](CC(=O)O)NC1=O)NC(=O)[C@H](C)NC(=O)[C@H](CC(=O)O)NC2=O` (stereo partly drawn) [I-413, Ac-PL3-Asp-Ala-B5-Asp-tetz-Ala-Ala-Phe-Gln-S8-Phe-BztA-Gln-NH2], for which the chromatographic logD in series [1] was 2. For the same compound, in series [2] (setting [4]), the IC50 came to 90 nM. This compound registered a Solubility in series [3] (Solubility (uM)) of 31 µM (≈ 57.4 µg/mL).

For the compound `CC(=O)N1CCC[C@]12CC=CCCCC1(CCCC=CCCCCCC[C@@](C)(C(=O)N[C@@H](Cc3ccccc3)C(=O)N[C@@H](Cc3csc4ccccc34)C(=O)N[C@@H](CCC(N)=O)C(N)=O)NC(=O)[C@H](CCC(N)=O)NC(=O)[C@H](Cc3ccccc3)NC(=O)[C@H](C)NC(=O)[C@H](C)NC(=O)[C@H](CCC(=O)O)NC(=O)[C@H](Cc3nn[nH]n3)NC1=O)NC(=O)[C@H](C)NC(=O)[C@H](CC(=O)O)NC2=O` (stereo partly drawn) [I-414, Ac-PL3-Asp-Ala-B5-tetz-Glu-Ala-Ala-Phe-Gln-S8-Phe-BztA-Gln-NH2], in series [1], the “CHI Log D” value was 2.096. For the same compound, the IC50 in series [2] (setting [4]) and in series [2] (read-out: FP EC50) was 3420 nM in each case. In series [3], the “Solubility” value came out at 19 µM (≈ 35.4 µg/mL).

As to `CC(=O)N1CCC[C@]12CC=CCCCC1(CCCC=CCCCCCC[C@@](C)(C(=O)N[C@@H](Cc3ccccc3)C(=O)N[C@@H](Cc3csc4ccccc34)C(=O)N[C@@H](CCC(N)=O)C(N)=O)NC(=O)[C@H](CCC(N)=O)NC(=O)[C@H](Cc3ccccc3)NC(=O)[C@H](C)NC(=O)[C@H](C)NC(=O)[C@H](CCC(=O)O)NC(=O)[C@H](Cc3nn[nH]n3)NC1=O)NC(=O)[C@H](C)NC(=O)[C@H](CC(=O)O)NC2=O` (stereo partly drawn) [I-415, Ac-PL3-Asp-Ala-B5-tetz-Glu-Ala-Ala-Phe-Gln-S8-Phe-BztA-Gln-NH2], the “CHI Log D” value in series [1] was determined as 2.125. Also, the IC50 in series [2] (setting [4]) and in series [2] (read-out: FP EC50) was 2200 nM each time. The “Solubility” value in series [3] was found to be 45 µM (≈ 83.9 µg/mL).

Consider `CC(=O)N1CCC[C@]12CC=CCCCC1(CCCC=CCCCCCC[C@@](C)(C(=O)N[C@@H](Cc3ccccc3)C(=O)N[C@@H](Cc3csc4ccccc34)C(=O)N[C@@H](Cc3c[nH]cn3)C(N)=O)NC(=O)[C@H](CCC(N)=O)NC(=O)[C@H](Cc3ccccc3)NC(=O)[C@H](C)NC(=O)[C@H](C)NC(=O)[C@H](CCC(=O)O)NC(=O)[C@H](CC(=O)O)NC1=O)NC(=O)[C@H](C)NC(=O)[C@H](CC(=O)O)NC2=O` (stereo partly drawn) [I-418, Ac-PL3-Asp-Ala-B5-Asp-Glu-Ala-Ala-Phe-Gln-S8-Phe-BztA-His-NH2], for which, in series [1], the “CHI Log D” value is on record as 2.089. For the same compound, the IC50 in series [2] (setting [4]) and in series [2] (read-out: FP EC50) was 149 nM in each case. Moreover, in series [3], the “Solubility” value stood at 32 µM (≈ 59.2 µg/mL).

The compound `CC(=O)N1CCC[C@]12CC=CCCCC1(CCCC=CCCCCCC[C@@](C)(C(=O)N[C@@H](Cc3ccccc3)C(=O)N[C@@H](Cc3csc4ccccc34)C(=O)N[C@@H](Cc3c[nH]cn3)C(N)=O)NC(=O)[C@H]([C@@H](C)O)NC(=O)[C@H](Cc3ccccc3)NC(=O)[C@H](C)NC(=O)[C@H](C)NC(=O)[C@H](CCC(=O)O)NC(=O)[C@H](CC(=O)O)NC1=O)NC(=O)[C@H](C)NC(=O)[C@H](CC(=O)O)NC2=O` (stereo partly drawn) [I-420, Ac-PL3-Asp-Ala-B5-Asp-Glu-Ala-Ala-Phe-Thr-S8-Phe-BztA-His-NH2] returned a chromatographic logD in series [1] of 2.16. For the same compound, the IC50 in series [2] (setting [4]) came to 128 nM. This compound returned a Solubility in series [3] (Solubility (uM)) of 24 µM (≈ 43.8 µg/mL).

As for `CC(=O)N1CCC[C@]12CC=CCCCC1(CCCC=CCCCCCC[C@@](C)(C(=O)N[C@@H](Cc3ccccc3)C(=O)N[C@@H](Cc3csc4ccccc34)C(=O)N[C@@H](Cc3c[nH]cn3)C(N)=O)NC(=O)[C@H](CC(N)=O)NC(=O)[C@H](Cc3ccccc3)NC(=O)[C@H](C)NC(=O)[C@H](C)NC(=O)[C@H](CCC(=O)O)NC(=O)[C@H](CC(=O)O)NC1=O)NC(=O)[C@H](C)NC(=O)[C@H](CC(=O)O)NC2=O` (stereo partly drawn) [I-421, Ac-PL3-Asp-Ala-B5-Asp-Glu-Ala-Ala-Phe-Asn-S8-Phe-BztA-His-NH2], the “CHI Log D” value in series [1] stood at 2.087. Further, the IC50 in series [2] (setting [4]) and in series [2] (read-out: FP EC50) was 99 nM throughout. In series [3], the “Solubility” value is 36 µM (≈ 66.1 µg/mL).

On to `CC(=O)N1CCC[C@]12CC=CCCCC1(CCCC=CCCCCCC[C@@](C)(C(=O)N[C@@H](Cc3ccccc3)C(=O)N[C@@H](Cc3csc4ccccc34)C(=O)N[C@@H](Cc3c[nH]cn3)C(N)=O)NC(=O)[C@H](CC(N)=O)NC(=O)[C@H](Cc3ccccc3)NC(=O)[C@H](C)NC(=O)[C@H](C)NC(=O)[C@H](CCC(=O)O)NC(=O)[C@H](CC(=O)O)NC1=O)NC(=O)[C@H](C)NC(=O)[C@H](CC(=O)O)NC2=O` (stereo partly drawn) [I-422, Ac-PL3-Asp-Ala-B5-Asp-Glu-Ala-Ala-Phe-Asn-S8-Phe-BztA-His-NH2], for which, in series [1], the “CHI Log D” value is listed as 2.136. The IC50 in series [2] (setting [4]) and in series [2] (read-out: FP EC50) was 27 nM throughout. Also, the “Solubility” value in series [3] was found to be 24 µM (≈ 44.1 µg/mL).

The values are drawn from patent publication US20240116985A1, “STAPLED PEPTIDES AND METHODS THEREOF” (priority 2020, published 2024).
